Reference: patent publication US20150315188A1, “COMPOUNDS AND METHODS FOR TREATMENT OF HYPERTENSION” (MEDIVATION TECHNOLOGIES, INC., priority 2012, published 2015)
One block for each compound: values may come before it.

Assays:
[1] = target: T1, Human adrenergic α1B receptor (Homo sapiens, UniProt P35368); assay: Radioligand binding, adrenergic α1B (Protocol Group B); design: purchased Milipore (Millipore); conditions: Protocol Group B; for inhibition at 0.1 µM / Percentage inhibition of ligand binding, Adrenergic α1B (0.1 μM): 0.1 μM compound; for inhibition at 0.1 µM: read-out: Percentage inhibition of ligand binding, Adrenergic α1B (0.1 μM); for inhibition at 0.3 µM / Percentage inhibition of ligand binding, Adrenergic α1B (0.3 μM): 0.3 μM compound; for inhibition at 0.3 µM: read-out: Percentage inhibition of ligand binding, Adrenergic α1B (0.3 μM)
T1 sequence (P35368 1-520): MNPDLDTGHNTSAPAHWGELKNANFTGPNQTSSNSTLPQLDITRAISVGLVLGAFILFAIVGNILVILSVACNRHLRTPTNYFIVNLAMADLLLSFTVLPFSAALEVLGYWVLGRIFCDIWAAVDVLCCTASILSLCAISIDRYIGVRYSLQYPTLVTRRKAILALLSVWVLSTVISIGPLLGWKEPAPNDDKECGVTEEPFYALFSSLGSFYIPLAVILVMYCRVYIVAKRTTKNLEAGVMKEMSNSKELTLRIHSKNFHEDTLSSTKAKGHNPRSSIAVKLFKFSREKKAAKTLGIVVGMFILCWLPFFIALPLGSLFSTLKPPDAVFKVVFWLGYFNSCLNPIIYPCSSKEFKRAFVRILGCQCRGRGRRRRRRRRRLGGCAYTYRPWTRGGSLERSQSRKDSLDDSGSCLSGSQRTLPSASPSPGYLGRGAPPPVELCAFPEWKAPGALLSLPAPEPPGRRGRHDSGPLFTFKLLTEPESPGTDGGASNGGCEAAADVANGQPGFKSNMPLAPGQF
Procedure, shortened: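 Recombinant human α1B membranes incubated with test compound and 0.3 nM [3H]prazosin, 60 min at 25 °C, in 50 mM Tris-HCl pH 7.4, 10 mM MgCl2, 1 mM EDTA; nonspecific binding with 10 μM prazosin. Filter-bound radioactivity counted; values are % inhibition of specific binding or estimated Ki.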

[2] = target: T2, Human adrenergic α2B receptor (Homo sapiens, UniProt P18089); assay: β-Arrestin GPCR functional assay, adrenergic α2B (Protocol B); assay type: cell-based; conditions: β-arrestin, antagonist vs nor-epinephrine EC80; read-out: IC50 Adrenergic α2B
T2 sequence (P18089 1-450): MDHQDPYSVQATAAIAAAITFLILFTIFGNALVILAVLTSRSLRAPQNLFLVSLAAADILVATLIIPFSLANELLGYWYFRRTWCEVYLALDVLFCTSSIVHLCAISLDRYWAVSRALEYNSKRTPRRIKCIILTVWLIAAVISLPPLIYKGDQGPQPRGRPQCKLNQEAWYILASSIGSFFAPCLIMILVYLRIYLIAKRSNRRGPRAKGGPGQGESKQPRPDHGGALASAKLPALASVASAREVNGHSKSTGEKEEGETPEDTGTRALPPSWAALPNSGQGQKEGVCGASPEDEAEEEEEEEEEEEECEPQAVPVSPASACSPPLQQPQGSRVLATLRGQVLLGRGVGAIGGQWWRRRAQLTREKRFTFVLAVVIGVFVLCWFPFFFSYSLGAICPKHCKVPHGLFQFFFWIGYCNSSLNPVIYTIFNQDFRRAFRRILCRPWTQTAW
Method: To evaluate the activity of compounds in β-Arrestin GPCR functional assays, recombinant CHO cell line (DiscoveRX), over expressed with human adrenergic α2B receptor were used. The experiment was done with kit of DiscoveRX as per recommended protocol of the supplier. Cells were harvested from culture flask using cell dissociation solution (CDS) and plated at a density of 12,000 cells/well in CP reagent (supplied with the kit) in a half area 96-well white polystyrene plate. After 24 h incubation at 37° C., compounds at various concentrations in 1% (final) DMSO were charged to the cells for 30 min at 37° C. Active nor-epinephrine (-NE) at its EC80 concentrations (50 nM) were then added to the cells and incubated for another 90 min at 37° C. Detection mix was prepared by mixing of Path Hunter cell assay buffer, Emerald II solution and Galactone star solution in a ratio of 19:5:1 and incubated with the cells for 60 min at RT in the dark. The reading was taken in Envision at luminescence mode. Biochemical assay results are presented as the percent Inhibition in Table B2a, or IC50 values in Table B2b.

[3] = target: T3, Human adrenergic α2A receptor (Homo sapiens, UniProt P08913); assay: Radioligand binding, adrenergic α2A (Protocol Group B); design: purchased Milipore (Millipore); conditions: Protocol Group B; for inhibition at 0.1 µM / Percentage inhibition of ligand binding, Adrenergic α2A (0.1 μM): 0.1 μM compound; for inhibition at 0.1 µM: read-out: Percentage inhibition of ligand binding, Adrenergic α2A (0.1 μM); for inhibition at 0.3 µM / Percentage inhibition of ligand binding, Adrenergic α2A (0.3 μM): 0.3 μM compound; for inhibition at 0.3 µM: read-out: Percentage inhibition of ligand binding, Adrenergic α2A (0.3 μM)
T3 sequence (P08913 1-465): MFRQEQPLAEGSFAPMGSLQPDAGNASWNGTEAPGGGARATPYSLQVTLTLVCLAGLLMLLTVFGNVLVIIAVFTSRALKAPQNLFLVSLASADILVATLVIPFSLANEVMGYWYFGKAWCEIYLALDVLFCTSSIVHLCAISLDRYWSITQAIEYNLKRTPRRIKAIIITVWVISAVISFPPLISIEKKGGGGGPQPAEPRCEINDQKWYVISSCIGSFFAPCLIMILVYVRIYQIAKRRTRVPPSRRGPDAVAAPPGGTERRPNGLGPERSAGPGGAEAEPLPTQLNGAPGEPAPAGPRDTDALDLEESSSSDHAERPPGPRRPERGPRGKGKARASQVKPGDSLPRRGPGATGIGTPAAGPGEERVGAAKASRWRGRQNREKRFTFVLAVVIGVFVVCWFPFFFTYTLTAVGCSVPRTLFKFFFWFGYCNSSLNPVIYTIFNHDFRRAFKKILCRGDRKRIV
Procedure, shortened: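 Membranes from recombinant cells expressing the receptor, in 50 mM Tris-HCl pH 7.4 with 5 mM MgCl2, 1 mM CaCl2, 0.2% BSA; compounds incubated with 2 nM [^3H]MK-912 for 60 min at 25° C. Nonspecific binding defined by 10 μM rauwolscine; filtration, counting; percent inhibition of specific binding, or estimated Ki.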

[4] = target: T2, Human adrenergic α2B receptor; assay: Radioligand binding, adrenergic α2B (Protocol Group B); design: purchased Milipore (Millipore); conditions: Protocol Group B; for inhibition at 0.01 µM / Percentage inhibition of ligand binding, Adrenergic α2B (10 nM): 10 nM compound; for inhibition at 0.01 µM: read-out: Percentage inhibition of ligand binding, Adrenergic α2B (10 nM); for inhibition at 0.03 µM / Percentage inhibition of ligand binding, Adrenergic α2B (30 nM): 30 nM compound; for inhibition at 0.03 µM: read-out: Percentage inhibition of ligand binding, Adrenergic α2B (30 nM); for Ki: estimated Ki, read-out: Ki α2B; for Percentage inhibition of ligand binding, Adrenergic α2B (10 nM): 0.01 µM; for Percentage inhibition of ligand binding, Adrenergic α2B (30 nM): 0.03 µM
Procedure, shortened: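 Recombinant human α2B receptor membranes incubated with compounds in 50 mM Tris-HCl pH 7.4, 5 mM MgCl2, 1 mM CaCl2, 0.2% BSA, 1% DMSO vehicle. Non-specific binding defined with 10 μM rauwolscine. Values are percent inhibition of specific binding or estimated Ki.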

inhibition at 0.1 µM [1]: 6%
inhibition at 0.3 µM [1]: 11%
IC50 [2]: 261 nM
inhibition at 0.1 µM [3]: 24%
inhibition at 0.3 µM [3]: 30%
inhibition at 0.01 µM [4]: 51%
inhibition at 0.03 µM [4]: 74%
Ki [4]: 4.55 nM
SMILES: Cc1cc(F)cc2c3c(n(CC(C)(O)c4cccnc4)c12)CC1CCCN1C3 (single isomer, unassigned) [76d]

inhibition at 0.1 µM [1]: 8%
inhibition at 0.3 µM [1]: 14%
IC50 [2]: 692 nM
inhibition at 0.1 µM [3]: 8%
inhibition at 0.3 µM [3]: 36%
inhibition at 0.01 µM [4]: 42%
inhibition at 0.03 µM [4]: 71%
Ki [4]: 12.4 nM
SMILES: CC(O)(Cn1c2c(c3cc(Cl)cc(F)c31)CN1CCCC1C2)c1cccnc1 (single isomer, unassigned) [63c]

Percentage inhibition of ligand binding, Adrenergic α1B (0.1 μM) [1]: 15%
inhibition at 0.3 µM [1]: 33%
Ki ([1]; estimated Ki): 179 nM
IC50 [2]: 237 nM
Percentage inhibition of ligand binding, Adrenergic α2A (0.1 μM) [3]: 16%
inhibition at 0.3 µM [3]: 42%
Ki ([3]; estimated Ki): 291 nM
inhibition at 0.01 µM [4]: 38%
inhibition at 0.03 µM [4]: 72%
inhibition at 0.1 µM ([4]; 0.1 μM compound, read-out: Percentage inhibition of ligand binding, Adrenergic α2B (0.1 μM)): 90%
Ki [4]: 7.16 nM
SMILES: Cc1ccc2c(c1)c1c(n2CC(C)(O)c2cccnc2)CC2CCCN2C1 (single isomer, unassigned) [38b]

Further lines, the compound ahead of its results:

SMILES: Cc1ccc2c(c1F)c1c(n2CC(C)(O)c2cccnc2)CCN2CCCC12 (single isomer, unassigned) [87a]
Percentage inhibition of ligand binding, Adrenergic α1B (0.1 μM) [1]: 13%
Percentage inhibition of ligand binding, Adrenergic α1B (0.3 μM) [1]: 27%
IC50 [2]: 303 nM
Percentage inhibition of ligand binding, Adrenergic α2A (0.1 μM) [3]: 19%
Percentage inhibition of ligand binding, Adrenergic α2A (0.3 μM) [3]: 33%
Percentage inhibition of ligand binding, Adrenergic α2B (10 nM) [4]: 30%
Percentage inhibition of ligand binding, Adrenergic α2B (30 nM) [4]: 63%
Ki [4]: 20.6 nM

SMILES: Cc1cc(F)cc2c3c(n(CC(C)(O)c4cccnc4)c12)CCN1CCCC31 (single isomer, unassigned) [75d]
Percentage inhibition of ligand binding, Adrenergic α1B (0.1 μM) [1]: 15%
Percentage inhibition of ligand binding, Adrenergic α1B (0.3 μM) [1]: 33%
IC50 [2]: 381 nM
Percentage inhibition of ligand binding, Adrenergic α2A (0.1 μM) [3]: 25%
Percentage inhibition of ligand binding, Adrenergic α2A (0.3 μM) [3]: 41%
Percentage inhibition of ligand binding, Adrenergic α2B (10 nM) [4]: 55%
Percentage inhibition of ligand binding, Adrenergic α2B (30 nM) [4]: 79%
Ki [4]: 8.65 nM

SMILES: Cc1ccc2c(c1F)c1c(n2CC(C)(O)c2cccnc2)CCN2CCCC12 (single isomer, unassigned) [87b]
Percentage inhibition of ligand binding, Adrenergic α1B (0.1 μM) [1]: 16%
Percentage inhibition of ligand binding, Adrenergic α1B (0.3 μM) [1]: 35%
IC50 [2]: 284 nM
Percentage inhibition of ligand binding, Adrenergic α2A (0.1 μM) [3]: 31%
Percentage inhibition of ligand binding, Adrenergic α2A (0.3 μM) [3]: 53%
Percentage inhibition of ligand binding, Adrenergic α2B (10 nM) [4]: 37%
Percentage inhibition of ligand binding, Adrenergic α2B (30 nM) [4]: 66%
Ki [4]: 23.8 nM

SMILES: Cc1ccc2c(c1)c1c(n2CC(C)(O)c2cnc3ccccc3c2)CCN(C)C1 (single isomer, unassigned) [32a]
inhibition at 0.1 µM [1]: -1%
inhibition at 0.3 µM [1]: 26%
IC50 [2]: 396 nM
inhibition at 0.1 µM [3]: 10%
inhibition at 0.3 µM [3]: 37%
inhibition at 0.01 µM [4]: 28%
inhibition at 0.03 µM [4]: 54%
Ki [4]: 7.9 nM

SMILES: Cc1cc(F)cc2c3c(n(CC(O)c4ccncc4)c12)CCN1CCCC31 (single isomer, unassigned) [136b]
Percentage inhibition of ligand binding, Adrenergic α1B (0.1 μM) [1]: 24%
Percentage inhibition of ligand binding, Adrenergic α1B (0.3 μM) [1]: 63%
IC50 [2]: 68.3 nM
Percentage inhibition of ligand binding, Adrenergic α2A (0.1 μM) [3]: 45%
Percentage inhibition of ligand binding, Adrenergic α2A (0.3 μM) [3]: 72%
Percentage inhibition of ligand binding, Adrenergic α2B (10 nM) [4]: 76%
Percentage inhibition of ligand binding, Adrenergic α2B (30 nM) [4]: 96%
Ki [4]: 2.45 nM

SMILES: Cc1cc(F)cc2c3c(n(CC(C)(O)c4ccncc4)c12)CCN1CCCC31 (single isomer, unassigned) [77b]
Percentage inhibition of ligand binding, Adrenergic α1B (0.1 μM) [1]: −3%
Percentage inhibition of ligand binding, Adrenergic α1B (0.3 μM) [1]: 14%
Percentage inhibition of ligand binding, Adrenergic α2A (0.1 μM) [3]: 5%
Percentage inhibition of ligand binding, Adrenergic α2A (0.3 μM) [3]: 9%
Percentage inhibition of ligand binding, Adrenergic α2B (10 nM) [4]: 6%
Percentage inhibition of ligand binding, Adrenergic α2B (30 nM) [4]: 12%

SMILES: CC(O)(Cn1c2c(c3cc(Cl)cc(F)c31)C1CCCN1CC2)c1cccnc1 (single isomer, unassigned) [53b]
Percentage inhibition of ligand binding, Adrenergic α1B (0.1 μM) [1]: 4%
Percentage inhibition of ligand binding, Adrenergic α1B (0.3 μM) [1]: 33%
Percentage inhibition of ligand binding, Adrenergic α2A (0.1 μM) [3]: 34%
Percentage inhibition of ligand binding, Adrenergic α2A (0.3 μM) [3]: 54%
Percentage inhibition of ligand binding, Adrenergic α2B (10 nM) [4]: 74%
Percentage inhibition of ligand binding, Adrenergic α2B (30 nM) [4]: 91%
Percentage inhibition of ligand binding, Adrenergic α2B (0.1 μM) ([4]; 0.1 μM compound, 0.1 µM): 97%
Ki [4]: 1.8 nM
